Patent publication US20170121322A1, “BET-PROTEIN INHIBITING 3,4-DIHYDROPYRIDO[2,3-B]PYRAZINONES WITH META-SUBSTITUTED AROMATIC AMINO- OR ETHER GROUPS” (Bayer Pharma Aktiengesellschaft, priority 2014, published 2017)

Legend:
B16F10 cells = assay: Cell proliferation assay B16F10 (alamarBlue); assay type: cell-based; conditions: Mus musculus, B16-F10, melanoma (BRAF wild-type) cells, 96 hours
Procedure: (§1) In accordance with the invention, the ability of the substances to inhibit cell proliferation was determined. Cell viability was determined by means of the alamarBlue® reagent (Invitrogen) in a Victor X3 Multilabel Reader (Perkin Elmer). The excitation wavelength was 530 nm and the emission wavelength […].
The B16F10 cells (ATCC, CRL-6475) were seeded at a concentration of 300-500 cells/well in 100 μl of growth medium (DMEM with phenol red, 10% FCS) on 96-well microtitre plates.
(§2) After overnight incubation at 37° C., the fluorescence values (CI values) were determined. Then the plates were treated with various substance dilutions (1E-5 M, 3E-6 M, 1E-6 M, 3E-7 M, 1E-7 M, 3E-8 M, 1E-8 M) and incubated at 37° C. over 96 hours (MOLM-13, B16F10, CHL-1 cells) or 120 hours (MOLP-8 cells). Subsequently, the fluorescence values were determined (CO values). For the data analysis, the CI values were subtracted from the CO values and the results were compared between cells which had been treated with various dilutions of the substance or only with buffer solution. The IC50 values (substance concentration needed for 50% inhibition of cell proliferation) were calculated therefrom.
(§3) The substances were tested in the cell lines in Table 2, which represent the indications specified by way of example: […]

[1] = molecular target: T1, BRD4 bromo domain 2 [BRD4(2)] (Homo sapiens, UniProt O60885); assay: BRD4(2)/acetylated peptide H4 TR-FRET binding assay; conditions: His6-BRD4(2) (aa 357-445) vs acetylated histone H4 peptide
T1 construct: N-terminally His6-tagged BRD4(2) (amino acids 357-445); made in house; host or cells: E. coli
Source text: To assess the BRD4(2) binding strength of the substances described in this application, the ability thereof to inhibit the interaction between BRD4(2) and acetylated histone H4 in a dose-dependent manner was quantified.
For this purpose, a time-resolved fluorescence resonance energy transfer (TR-FRET) assay was used, which measures the binding between N-terminally His6-tagged BRD4(2) (amino acids 357-445) and a synthetic acetylated histone H4 (Ac-H4) peptide with sequence SGRGK(Ac)GGK(Ac)GLGK(Ac)GGAK(Ac)RHRKVLRDNGSGSK-biotin. The recombinant BRD4(2) protein produced in-house according to Filippakopoulos et al., Cell, 2012, 149:214-231 was expressed in E. coli and purified by means of (Ni-NTA) affinity and (Sephadex G-75) size exclusion chromatography. The Ac-H4 peptide can be purchased, for example, from Biosyntan (Berlin, Germany).
In the assay, typically 11 different concentrations of each substance (0.1 nM, 0.33 nM, 1.1 nM, 3.8 nM, 13 nM, 44 nM, 0.15 μM, 0.51 μM, 1.7 μM, 5.9 μM and 20 μM) were analysed as duplicates on the same microtitre plate. For this purpose, 100-fold concentrated solutions in DMSO were prepared by serial dilutions (1:3.4) of a 2 mM stock solution into a clear, 384-well microtitre plate (Greiner Bio-One, Frickenhausen, Germany). From this, 50 nl were transferred into a black test plate (Greiner Bio-One, Frickenhausen, Germany). The test was started by the addition of 2 μl of a 2.5-fold concentrated BRD4(2) solution (final concentration typically 100 nM in the 5 μl of reaction volume) in aqueous assay buffer [50 mM HEPES pH 7.5, 50 mM sodium chloride (NaCl); 50 mM potassium fluoride (KF); 0.25 mM CHAPS and 0.05% serum albumin (BSA)] to the substances in the test plate. This was followed by a 10-minute incubation step at 22° C. for the pre-equilibration of putative complexes between BRD4(2) and the substances.
The mixture was then incubated in the dark at 22° C. for one hour and then at 4° C. for at least 3 hours and for no longer than overnight. The formation of BRD4(2)/Ac-H4 complexes was determined by the measurement of the resonance energy transfer from the streptavidin-Eu chelate to the anti-6His-XL665 antibody present in the reaction. For this purpose, the fluorescence emission was measured at 620 nm and 665 nm after excitation at 330-350 nm in a TR-FRET measuring instrument, for example a Rubystar or Pherastar (both from BMG Lab Technologies, Offenburg, Germany) or a Viewlux (Perkin-Elmer). The ratio of the emissions at 665 nm and at 622 nm was taken as an indicator of the amount of BRD4(2)/Ac-H4 complexes formed.
The data (ratios) obtained were normalized, with 0% inhibition corresponding to the mean from the measurements for a set of controls (typically 32 data points) in which all the reagents were present. In these, in place of test substances, 50 nl of DMSO (100%) were used. Inhibition of 100% corresponded to the mean from the measurements for a set of controls (typically 32 data points) in which all the reagents except BRD4(2) were present. The IC50 was determined by regression analysis based on a 4-parameter equation (minimum, maximum, IC50, Hill; Y=Max+(Min−Max)/(1+(X/IC50)Hill)).

MOLM-13 cells = assay: Cell proliferation assay MOLM-13, method 1 (alamarBlue); assay type: cell-based; conditions: Homo sapiens, acute myeloid leukaemia cells, 4000 cells/well, 96-well, 96 hours
Procedure: as §1
The MOLM-13 cells (DSMZ, ACC 554) were seeded at a concentration of 4000 cells/well in 100 μl of growth medium (RPMI1640, 10% FCS) on 96-well microtitre plates (method 1).
as §2, §3

CHL-1 cells = assay: Cell proliferation assay CHL-1 (alamarBlue); assay type: cell-based; conditions: Homo sapiens, melanoma (BRAF wild-type) cells, 96 hours
Procedure: as §1
The CHL-1 cells (ATCC, CRL-9446) were seeded at a concentration of 1000 cells/well in 100 μl of growth medium (DMEM with glutamine, 10% FCS) on 96-well microtitre plates.
as §2, §3

Compound | IC50 (B16F10 cells) | IC50 [1] | IC50 (MOLM-13 cells) | IC50 (CHL-1 cells)
C[C@@H]1C(=O)N(C)c2ccc(Nc3ccc4c(c3)S(=O)(=O)CC4)nc2N1C1CCOCC1 [Example 4, (3R)-6-[(1,1-Dioxido-2,3-dihydro-1-benzothiophen-6-yl)amino]-1,3-dimethyl-4-(tetrahydro-2H-pyran-4-yl)-3,4-dihydropyrido[2,3-b]pyrazin-2(1H)-one] | 375 nM | 64 nM | 289 nM | 196 nM
COc1ccc(S(C)(=O)=O)cc1Nc1ccc2c(n1)N(C(C)C)[C@H](C)C(=O)N2C [Example 14, (3R)-4-Isopropyl-6-{[2-methoxy-5-(methylsulphonyl)phenyl]amino}-1,3-dimethyl-3,4-dihydropyrido[2,3-b]pyrazin-2(1H)-one] | 248 nM | 76 nM | 205 nM | 118 nM
CC(C)S(=O)(=O)c1ccc(OC(F)(F)F)c(Nc2ccc3c(n2)N(C2CCN(C)CC2)[C@H](C)C(=O)N3C)c1 [Example 20, (3R)-6-{[5-(Isopropylsulphonyl)-2-(trifluoromethoxy)phenyl]amino}-1,3-dimethyl-4-(1-methylpiperidin-4-yl)-3,4-dihydropyrido[2,3-b]pyrazin-2(1H)-one] | 49 nM | 65 nM | 19 nM | 20 nM
COc1ccc(S(=O)(=O)C(C)C)cc1Nc1ccc2c(n1)N(C1CCN(C)CC1)[C@H](C)C(=O)N2C [Example 13, (3R)-6-{[5-(Isopropylsulphonyl)-2-methoxyphenyl]amino}-1,3-dimethyl-4-(1-methylpiperidin-4-yl)-3,4-dihydropyrido[2,3-b]pyrazin-2(1H)-one] | 59 nM | 62 nM | 15 nM | 11 nM
COc1ccc(S(=O)(=O)C2CCOCC2)cc1Nc1ccc2c(n1)N(C1CCN(C)CC1)[C@H](C)C(=O)N2C [Example 22, (3R)-6-{[2-Methoxy-5-(tetrahydro-2H-pyran-4-ylsulphonyl)phenyl]amino}-1,3-dimethyl-4-(1-methylpiperidin-4-yl)-3,4-dihydropyrido[2,3-b]pyrazin-2(1H)-one] | 140 nM | 54 nM | 99 nM | 21 nM
C[C@@H]1C(=O)N(C)c2ccc(Nc3cccc(S(C)(=O)=O)c3)nc2N1C1CCOCC1 [Example 1, (3R)-1,3-Dimethyl-6-{[3-(methylsulphonyl)phenyl]amino}-4-(tetrahydro-2H-pyran-4-yl)-3,4-dihydropyrido[2,3-b]pyrazin-2(1H)-one] | 285 nM | 121 nM | 191 nM | 180 nM
C[C@@H]1C(=O)N(C)c2ccc(Nc3cccc(C(F)(F)F)c3)nc2N1C1CCOCC1 [Example 43, (3R)-1,3-Dimethyl-4-(tetrahydro-2H-pyran-4-yl)-6-{[3-(trifluoromethyl)phenyl]amino}-3,4-dihydropyrido[2,3-b]pyrazin-2(1H)-one] | 1080 nM | 234 nM | 1220 nM | 707 nM
COc1ccc(S(=O)(=O)C(C)C)cc1Nc1ccc2c(n1)N(C1CCN(CC(F)(F)F)CC1)[C@H](C)C(=O)N2C [Example 28, (3R)-6-{[5-(Isopropylsulphonyl)-2-methoxyphenyl]amino}-1,3-dimethyl-4-[1-(2,2,2-trifluoroethyl)piperidin-4-yl]-3,4-dihydropyrido[2,3-b]pyrazin-2(1H)-one] | 21 nM | 63 nM | 26 nM | 25 nM
COc1cc(Nc2ccc3c(n2)N(C2CCOCC2)[C@H](C)C(=O)N3C)cc(S(C)(=O)=O)c1 [Example 40, (3R)-6-{[3-Methoxy-5-(methylsulphonyl)phenyl]amino}-1,3-dimethyl-4-(tetrahydro-2H-pyran-4-yl)-3,4-dihydropyrido[2,3-b]pyrazin-2(1H)-one] | 269 nM | 94 nM | 121 nM | 

Second part, led by results:

IC50 (B16F10 cells) | IC50 [1] | IC50 (MOLM-13 cells) | Compound | IC50 (CHL-1 cells)
32 nM | 44 nM | 32 nM | COc1ccc(S(=O)(=O)C2CCOCC2)cc1Nc1ccc2c(n1)N(C1CCOCC1)[C@H](C)C(=O)N2C [Example 34, (3R)-6-{[2-Methoxy-5-(tetrahydro-2H-pyran-4-ylsulphonyl)phenyl]amino}-1,3-dimethyl-4-(tetrahydro-2H-pyran-4-yl)-3,4-dihydropyrido[2,3-b]pyrazin-2(1H)-one] | 30 nM
104 nM | 44 nM | 111 nM | CC(C)S(=O)(=O)c1cccc(Nc2ccc3c(n2)N(C2CCOCC2)[C@H](C)C(=O)N3C)c1 [Example 7, (3R)-6-{[3-(Isopropylsulphonyl)phenyl]amino}-1,3-dimethyl-4-(tetrahydro-2H-pyran-4-yl)-3,4-dihydropyrido[2,3-b]pyrazin-2(1H)-one] | 51 nM
 | 68 nM | 14 nM | COc1ccc(S(=O)(=O)C(C)C)cc1Nc1ccc2c(n1)N(C1CCN(CCC(F)(F)F)CC1)[C@H](C)C(=O)N2C [Example 31, (3R)-6-{[5-(Isopropylsulphonyl)-2-methoxyphenyl]amino}-1,3-dimethyl-4-[1-(3,3,3-trifluoropropyl)piperidin-4-yl]-3,4-dihydropyrido[2,3-b]pyrazin-2(1H)-one] | 12 nM
84 nM | 56 nM | 137 nM | COc1ccc(S(=O)(=O)C(F)(F)F)cc1Nc1ccc2c(n1)N(C1CCOCC1)[C@H](C)C(=O)N2C [Example 39, (3R)-6-({2-Methoxy-5-[(trifluoromethyl)sulphonyl]phenyl}amino)-1,3-dimethyl-4-(tetrahydro-2H-pyran-4-yl)-3,4-dihydropyrido[2,3-b]pyrazin-2(1H)-one] | 
 | 83 nM | 69 nM | COc1ccc(S(C)(=O)=O)cc1Nc1ccc2c(n1)N(C1CCNCC1)[C@H](C)C(=O)N2C [Example 27, (3R)-6-{[2-Methoxy-5-(methylsulphonyl)phenyl]amino}-1,3-dimethyl-4-(piperidin-4-yl)-3,4-dihydropyrido[2,3-b]pyrazin-2(1H)-one] | 311 nM
40 nM | 67 nM |  | COc1ccc(S(=O)(=O)C(C)C)cc1Nc1ccc2c(n1)N(C1CCN(CC(F)F)CC1)[C@H](C)C(=O)N2C [Example 29, (3R)-4-[1-(2,2-Difluoroethyl)piperidin-4-yl]-6-{[5-(isopropylsulphonyl)-2-methoxyphenyl]amino}-1,3-dimethyl-3,4-dihydropyrido[2,3-b]pyrazin-2(1H)-one] | 
